Assay [1] relates to RAW264.7. Briefly: Antiinflammatory activity in mouse RAW264.7 cells assessed as decrease in LPS-induced IL-6 secretion after 24 hrs by ELISA method. The class given is functional, cell-based. The following applies: RAW264.7, 24 h. On the technique in general: ELISA stands for enzyme-linked immunosorbent assay.
Assay [2] relates to RAW264.7. Briefly: Anti-inflammatory activity against LPS-stimulated mouse RAW264.7 cells assessed as inhibition of IL-6 expression at 10 uM by qRT-PCR analysis relative to control. In kind it is functional. The arrangement: scale not given: the % may be the effect or the level left. In general terms: Quantitative PCR measures a nucleic acid by following its amplification.
The subject of assay [3] is RAW264.7. Briefly: Antiinflammatory activity in mouse RAW264.7 cells assessed as decrease in LPS-stimulated IL-6 mRNA level incubated for 3 hrs by RT-qPCR analysis. The class given is functional, cell-based. The following applies: RAW264.7, 3 h.
The next assay has as its system HepG2. Briefly: Anti-inflammatory activity against TNFalpha-induced human HepG2 cells assessed as inhibition of NF-kappaB activity pre-indubated for 1 hr followed by TNFalpha treatment measured for 5 hrs by luciferase based assay. In kind it is functional, cell-based.
For assay [4], the system named is BV-2. In words: Anti-inflammatory activity in mouse BV-2 cells assessed as inhibition of LPS-induced NO production preincubated with compound for 1 hrs followed by LPS stimulation and measured after 24 hrs by Griess reagent based assay. In kind it is functional, cell-based.
Assay [5] relates to RAW264.7. In words: Antiinflammatory activity against mouse RAW264.7 cells assessed as reduction of LPS-induced NO production. In kind it is functional, cell-based.
Assay [6] in a line: Anti-inflammatory activity in LPS-stimulated human PBMC cells assessed as inhibition of TNFalpha at 100 ug/ml relative to control. In kind it is functional. The arrangement: scale not given: the % may be the effect or the level left. The following applies: dose 100 µg/ml.
Another assay relates to J774.A1. Briefly: Anti-inflammatory activity against mouse J774.A1 cells assessed as inhibition of LPS-induced IL-1beta mRNA expression level pretreated for 30 mins followed by LPS-induction and measured after 6 hrs by RT-PCR analysis. In kind it is functional, cell-based.
Assay [7] deals with RAW264.7. Briefly: Anti-inflammatory activity against mouse RAW264.7 cells assessed as inhibition of LPS-induced IL-1beta mRNA expression level pretreated for 30 mins followed by LPS-induction and measured after 6 hrs by RT-PCR analysis. The class given is functional, cell-based.
Assay [8] concerns RAW264.7. In words: Anti-inflammatory activity in mouse RAW264.7 cells assessed as reduction in LPS-induced NO production by ELISA analysis. In kind it is functional, cell-based.
Assay [9] has as its system BV-2. In words: Anti-inflammatory activity against mouse BV-2 cells assessed as inhibition of LPS-induced IL-6 at 50 uM pre-treated for 2 hrs followed stimulated with LPS for 22 hrs relative to control. In kind it is functional. Conditions: time 24 hrs. The arrangement: scale not given: the % may be the effect or the level left.
The subject of assay [10] is BV-2. In words: Anti-inflammatory activity against mouse BV-2 cells assessed as inhibition of LPS-induced IL-6 pre-treated for 2 hrs followed stimulated with LPS for 22 hrs. In kind it is functional, cell-based.
The subject of assay [11] is THP-1. Briefly: Anti-inflammatory activity in human THP-1 cells assessed as inhibition of LPS-stimulated NO production by ELISA analysis. In kind it is functional, cell-based.
The test system of assay [12] is BV-2. In words: Anti-inflammatory activity against mouse BV-2 cells assessed as inhibition of LPS-induced COX-2 expression at 50 uM pretreated for 2 hrs followed stimulated with LPS for 22 hrs by ELISA analysis relative to control. The class given is functional. The arrangement: scale not given: the % may be the effect or the level left. Conditions: time 24 hrs.

Assay [13] deals with BV-2. Briefly: Anti-inflammatory activity against mouse BV-2 cells assessed as inhibition of LPS-induced IL-1beta secretion at 50 uM pretreated for 2 hrs followed stimulated with LPS for 22 hrs by ELISA analysis relative to control. The following applies: time 24 hrs. The arrangement: scale not given: the % may be the effect or the level left. In kind it is functional.
The test system of assay [14] is BV-2. In words: Anti-inflammatory activity against mouse BV-2 cells assessed as inhibition of LPS-induced IL-1beta secretion pretreated for 2 hrs followed stimulated with LPS for 22 hrs by ELISA analysis. In kind it is functional, cell-based.
Assay [15] deals with BV-2. In words: Anti-inflammatory activity against mouse BV-2 cells assessed as inhibition of LPS-induced PGE2 production pretreated for 2 hrs followed stimulated with LPS for 22 hrs by ELISA analysis. The class given is functional, cell-based.
Assay [16] concerns BV-2. Briefly: Anti-inflammatory activity against mouse BV-2 cells assessed as inhibition of LPS-induced PGE2 production at 50 uM pretreated for 2 hrs followed stimulated with LPS for 22 hrs by ELISA analysis relative to control. Conditions: time 24 hrs. The arrangement: scale not given: the % may be the effect or the level left. In kind it is functional.
Assay [17] relates to RAW264.7. In words: Anti-inflammatory activity against LPS-stimulated mouse RAW264.7 cells assessed as inhibition of IL-6 expression at 100 uM by qRT-PCR analysis relative to control. The class given is functional. The arrangement: scale not given: the % may be the effect or the level left.
The test system of assay [18] is BV-2. Briefly: Anti-inflammatory activity in mouse BV-2 cells assessed as reduction in LPS-induced NO production. In kind it is functional, cell-based.
The subject of assay [19] is BV-2. Briefly: Anti-inflammatory activity against mouse BV-2 cells assessed as inhibition of LPS-induced COX-2 expression pretreated for 2 hrs followed stimulated with LPS for 22 hrs by ELISA analysis. In kind it is functional, cell-based.
Assay [20] has as its system RAW264.7. Briefly: Anti-inflammatory activity in LPS-stimulated mouse RAW264.7 cells assessed as reduction in NO production incubated for 24 hrs by Griess reagent based assay. In kind it is functional, cell-based. The following applies: RAW264.7, 24 h. On the technique in general: Griess reagent forms a coloured azo dye with nitrite.
For assay [21], the system named is RAW264.7. In words: Anti-inflammatory activity in mouse RAW264.7 cells assessed as inhibition of LPS-induced IL-6 production at 50 microg/ml relative to control. The following applies: dose 50 µg/ml. The class given is functional. The arrangement: scale not given: the % may be the effect or the level left.
Assay [22] deals with RAW264.7. In words: Anti-inflammatory activity in mouse RAW264.7 cells assessed as inhibition of LPS-induced TNF-alpha production at 50 microg/ml relative to control. The class given is functional. The arrangement: scale not given: the % may be the effect or the level left. The following applies: dose 50 µg/ml.
Assay [23] relates to BV-2. In words: Anti-inflammatory activity against LPS-induced mouse BV-2 cells assessed as inhibition of COX-2 level at 12.5 microg/ml pre-incubated for 30 mins followed by LPS-stimulation and measured after 6 hrs by RT-PCR analysis. The arrangement: scale not given: the % may be the effect or the level left. Conditions: dose 12.5 µg/ml; time 390 min; 6.5 h. The class given is functional.

The test system of assay [24] is BV-2. Briefly: Anti-inflammatory activity against LPS-induced mouse BV-2 cells assessed as reduction in Interleukin-1beta production at 10 uM pre-incubated for 30 mins followed by LPS-stimulation and measured after 6 hrs by RT-PCR analysis. The class given is functional. The arrangement: scale not given: the % may be the effect or the level left. Conditions: time 390 min, 6.5 h.

The subject of assay [25] is BV-2. In words: Anti-inflammatory activity against LPS-induced mouse BV-2 cells assessed as inhibition of 5-lipoxygenase level at 25 microg/ml pre-incubated for 30 mins followed by LPS-stimulation and measured after 6 hrs by RT-PCR analysis. The following applies: dose 25 µg/ml; time 390 min; 6.5 h. The arrangement: scale not given: the % may be the effect or the level left. In kind it is functional.

Assay [26] relates to BV-2. In words: Anti-inflammatory activity against LPS-induced mouse BV-2 cells assessed as reduction in IL-6 production at 10 uM pre-incubated for 30 mins followed by LPS-stimulation and measured after 6 hrs by RT-PCR analysis. The class given is functional. The arrangement: scale not given: the % may be the effect or the level left. The following applies: time 390 min, 6.5 h.

For assay [27], the system named is RAW264.7. Briefly: Anti-inflammatory activity against mouse RAW264.7 cells assessed as inhibition of LPS-induced NO production. The class given is functional, cell-based.
Assay [28] deals with BV-2. Briefly: Antiinflammatory activity in mouse BV-2 cells assessed as reduction in LPS-induced NO production incubated for 24 hrs by microplate reader analysis. Conditions: BV-2, 24 h. In kind it is functional, cell-based.
Assay [29] deals with BV-2. In words: Anti-inflammatory activity in mouse BV-2 cells assessed as reduction in LPS-induced NO production pre-treated with compounds for 2 hrs followed by LPS-stimulation measured for 22 hrs by Griess reagent based analysis. The class given is functional, cell-based.
Assay [30] relates to THP-1. Briefly: Antiinflammatory activity in human THP-1 cells assessed as decrease in LPS-induced TNFalpha expression by Western blot analysis. The class given is functional, cell-based.
In another assay the test system is B16-F10. Briefly: Antiinflammatory activity in mouse B16-F10 cells assessed as decrease in LPS-induced TNFalpha expression by Western blot analysis. In kind it is functional, cell-based.
In assay [31] the test system is Mus musculus. Briefly: Antiinflammatory activity against TPA-induced CD-1 mouse ear edema model assessed as reduction in ear edema. The class given is functional, organism-based.
In assay [32] the test system is Mus musculus. In words: Antiinflammatory activity against TPA-induced CD-1 mouse ear edema model assessed as reduction in ear edema at 0.25 mg/kg relative to control. The arrangement: scale not given: the % may be the effect or the level left. The class given is functional.
Assay [33] has as its system RAW264.7. In words: Antiinflammatory activity in mouse RAW264.7 cells assessed as reduction in LPS-induced COX-2 expression after 24 hrs by Western blot analysis. The class given is functional, cell-based. Conditions: RAW264.7, 24 h.
In assay [34] the test system is RAW264.7. Briefly: Antiinflammatory activity in mouse RAW264.7 cells assessed as reduction in LPS-induced iNOS expression after 24 hrs by Western blot analysis. The class given is functional, cell-based. Conditions: RAW264.7, 24 h.
The test system of a further assay is Neutrophil. Briefly: Inhibition of fMLF/CB-induced human Neutrophil activation assessed as reduction in elastase release using MeO-Suc-Ala-Ala-Pro-Val-pnitroanilide as substrate incubated for 5 mins. The class given is functional, cell-based.

In brackets after ≈: the same amount, converted by molar mass.

Usually IC50 stands for the concentration that gives 50% inhibition.

`O=c1c(O)c(-c2ccc(O)c(O)c2)oc2cc(O)cc(O)c12` [QUERCETIN]: the IC50 with RAW264.7 [1] came out at 35.5 µM; with RAW264.7 [3], 22.5 µM; with HepG2 it was 15.1 µM; with BV-2 [4], 12.6 µM; with RAW264.7 [5] it was 14.2 µM. In addition, the Activity with RAW264.7 [2] was found to be 83.3%; in assay [6] it was 28.6%.
Regarding `COc1cc(O)c(C(=O)/C=C/c2ccccc2)c(O)c1`, the IC50 in the assay with J774.A1 was 42.8 µM; in the assay with RAW264.7 [7], 43.1 µM.
`O=c1c(O)c(-c2ccc(O)cc2)oc2cc(O)cc(O)c12` [KAEMPFEROL]: the IC50 came out at 14.1 µM in the assay with RAW264.7 [8]; 80.8 µM in the assay with BV-2 [10]; 15.9 µM in the assay on THP-1 [11]; 80.8 µM in the assay with BV-2 [14]; 20.5 µM in the assay on HepG2; 52.4 µM with BV-2 [15]. The IC50 in the assay with BV-2 [18] was determined as 10.6 µM; in the assay with BV-2 [19], 60.1 µM. Moreover, the Activity in the assay on BV-2 [9] is 28.1%; with RAW264.7 [2], 80.7%; in the assay with BV-2 [12] it was 51.4%; in the assay on BV-2 [13], 53.2%; in the assay on BV-2 [16], 65.2%; in the assay on RAW264.7 [17], 64.5%.
On to `O=c1cc(-c2ccc(O)c(O)c2)oc2cc(O)cc(O)c12` [LUTEOLIN], for which the IC50 in the assay on RAW264.7 [20] was determined as 1.2 µM. Moreover, the Activity in the assay with RAW264.7 [21] is 37%; with RAW264.7 [22], 38%.
Take `O=c1cc(-c2ccc(O)cc2)oc2cc(O)cc(O)c12` [APIGENIN]: the Activity with BV-2 [23] is given as 89.2%; with BV-2 [24], 68%; with BV-2 [25], 88.3%; in the assay on BV-2 [26] it was 68%. Besides, the IC50 in the assay on RAW264.7 [27] was 12.2 µM.
Take `O=C(/C=C/c1ccc(O)cc1)c1ccc(O)cc1O` [ISOLIQUIRITIGENIN]: the results for the IC50 in the assay on BV-2 [28] and in the assay on BV-2 [29] were 6.78 µM and 5.22 µM, respectively.
`COc1cc(O)cc(O)c1C(=O)/C=C/c1ccccc1` [CARDAMOMIN]: the IC50 with THP-1 [30] came to 1.1 µM; with B16-F10, 0.6 µM.
In the case of `O=C1C[C@@H](c2ccc(O)c(O)c2)Oc2cc(O)cc(O)c21` [ERIODICTYOL], in the assay on Mus musculus [31], the IC50 came to 0.72 µM. The Activity in the assay on Mus musculus [32] is 56.3%.
Turning to `O=C1c2c(O)cc(O)cc2O[C@H](c2cc(O)c(O)c(O)c2)[C@H]1O` [AMPELOPSIN], the IC50 in the assay on RAW264.7 [33] and in the assay with RAW264.7 [34] was 6.25 µg/mL (≈ 19.5 µM) each time.
For the compound `Cc1c(O)cc2c(c1O)C(=O)[C@H](O)[C@@H](c1ccc(O)cc1)O2`, the IC50 in the assay on Neutrophil was determined as 6 µM.

Source of the values: ChEMBL document CHEMBL5543059, “Discovery of anti-inflammatory natural flavonoids: Diverse scaffolds and promising leads for drug discovery” (Eur J Med Chem, 2023).
